{
  "source": "patent US9211310B2",
  "about": "“Use of a Chinese medicine composition in preparing medicaments for treating secondary prevention of myocardial infarction” (TASLY PHARMACEUTICAL GROUP CO., LTD, priority 2010, dated 2015)",
  "system": "patients after acute myocardial infarction",
  "assay": "Life quality, Seattle Angina Questionnaire (SAQ), same clinical trial",
  "type": "in vivo, human",
  "settings": "1 month after treatment",
  "description": "3508 patients who were in accordance with the diagnostic standards of AMI for 28 days to 2 years and differentiated as Qi deficiency and blood stagnation syndrome by TCM were studied. 0.5 g Chinese medicine composition prepared by the method of EXAMPLE 1 (Coded as QSYQ) was administrated half an hour after meal, 3 times per day.\nThere were 19 questions in the Seattle angina questionnaire (SAQ), including 5 parts: physical limitation (PL), anginal stability (AS), anginal frequency (AF), treatment satisfaction (TS) and disease perception (DP). After being given necessary explanation by doctors, the questions were answered independently by patients.\nThey included the overall survival time, angina pectoris score, TCM symptom score and life quality score, where angina pectoris score, TCM symptom score and life quality score were evaluated at randomization, in 1st, 3rd, 6th, 9th, 12th month after treatment and 18th month after follow-up.\nAll evaluation results of SAQ were described during the period of observation, and Wilcoxon rank sum test was used for inter-group comparison.\nThe evaluation results in the SAQ were depicted in different observations, and inter-group comparison was tested by Wilcoxon Rank-sum test.",
  "data": [
    {"smiles": "CC(=O)Oc1ccccc1C(=O)O", "note": "[Control group, aspirine]", "values": [
      {"measurement": "SAQ 2nd question: Clearly increased, % of cases", "setting": "FAS", "result": "(0.92%)"},
      {"measurement": "SAQ 2nd question: Clearly increased, cases", "setting": "FAS", "result": 16},
      {"measurement": "SAQ 2nd question: Clearly reduced, % of cases", "setting": "FAS", "result": "(16.50%)"},
      {"measurement": "SAQ 2nd question: Clearly reduced, cases", "setting": "FAS", "result": 287},
      {"measurement": "SAQ 2nd question: Same, % of cases", "setting": "FAS", "result": "(49.05%)"},
      {"measurement": "SAQ 2nd question: Same, cases", "setting": "FAS", "result": 853},
      {"measurement": "SAQ 2nd question: Slightly increased, % of cases", "setting": "FAS", "result": "(3.05%)"},
      {"measurement": "SAQ 2nd question: Slightly increased, cases", "setting": "FAS", "result": 53},
      {"measurement": "SAQ 2nd question: Slightly reduced, % of cases", "setting": "FAS", "result": "(30.48%)"},
      {"measurement": "SAQ 2nd question: Slightly reduced, cases", "setting": "FAS", "result": 530},
      {"measurement": "SAQ 3rd question: 1-2 times per week, % of cases", "setting": "FAS", "result": "(30.48%)"},
      {"measurement": "SAQ 3rd question: 1-2 times per week, cases", "setting": "FAS", "result": 530},
      {"measurement": "SAQ 3rd question: 1-3 times per day, % of cases", "setting": "FAS", "result": "(3.05%)"},
      {"measurement": "SAQ 3rd question: 1-3 times per day, cases", "setting": "FAS", "result": 53},
      {"measurement": "SAQ 3rd question: <1 time per week, % of cases", "setting": "FAS", "result": "(16.50%)"},
      {"measurement": "SAQ 3rd question: <1 time per week, cases", "setting": "FAS", "result": 287},
      {"measurement": "SAQ 3rd question: No onset, % of cases", "setting": "FAS", "result": "(0.00%)"},
      {"measurement": "SAQ 3rd question: No onset, cases", "setting": "FAS", "result": 0},
      {"measurement": "SAQ 3rd question: ≧3 times per week, % of cases", "setting": "FAS", "result": "(49.05%)"},
      {"measurement": "SAQ 3rd question: ≧3 times per week, cases", "setting": "FAS", "result": 853},
      {"measurement": "SAQ 3rd question: ≧4 times per day, % of cases", "setting": "FAS", "result": "(0.92%)"},
      {"measurement": "SAQ 3rd question: ≧4 times per day, cases", "setting": "FAS", "result": 16},
      {"measurement": "SAQ Question 1-3: Mildly limited, number of patients", "setting": "FAS", "result": 126},
      {"measurement": "SAQ Question 1-3: Mildly limited, percent of patients", "setting": "FAS", "result": "(7.23%)"},
      {"measurement": "SAQ Question 1-3: Moderately limited, number of patients", "setting": "FAS", "result": 34},
      {"measurement": "SAQ Question 1-3: Moderately limited, percent of patients", "setting": "FAS", "result": "(1.95%)"},
      {"measurement": "SAQ Question 1-3: Not limited, number of patients", "setting": "FAS", "result": 1261},
      {"measurement": "SAQ Question 1-3: Not limited, percent of patients", "setting": "FAS", "result": "(72.39%)"},
      {"measurement": "SAQ Question 1-3: Other reasons, number of patients", "setting": "FAS", "result": 9},
      {"measurement": "SAQ Question 1-3: Other reasons, percent of patients", "setting": "FAS", "result": "(0.52%)"},
      {"measurement": "SAQ Question 1-3: Severely limited, number of patients", "setting": "FAS", "result": 5},
      {"measurement": "SAQ Question 1-3: Severely limited, percent of patients", "setting": "FAS", "result": "(0.29%)"},
      {"measurement": "SAQ Question 1-3: Slightly limited, number of patients", "setting": "FAS", "result": 307},
      {"measurement": "SAQ Question 1-3: Slightly limited, percent of patients", "setting": "FAS", "result": "(17.62%)"},
      {"measurement": "SAQ Question 1-4: Mildly limited, number of patients", "setting": "FAS", "result": 349},
      {"measurement": "SAQ Question 1-4: Mildly limited, percent of patients", "setting": "FAS", "result": "(20.05%)"},
      {"measurement": "SAQ Question 1-4: Moderately limited, number of patients", "setting": "FAS", "result": 159},
      {"measurement": "SAQ Question 1-4: Moderately limited, percent of patients", "setting": "FAS", "result": "(9.13%)"},
      {"measurement": "SAQ Question 1-4: Not limited, number of patients", "setting": "FAS", "result": 618},
      {"measurement": "SAQ Question 1-4: Not limited, percent of patients", "setting": "FAS", "result": "(35.50%)"},
      {"measurement": "SAQ Question 1-4: Other reasons, number of patients", "setting": "FAS", "result": 12},
      {"measurement": "SAQ Question 1-4: Other reasons, percent of patients", "setting": "FAS", "result": "(0.69%)"},
      {"measurement": "SAQ Question 1-4: Severely limited, number of patients", "setting": "FAS", "result": 35},
      {"measurement": "SAQ Question 1-4: Severely limited, percent of patients", "setting": "FAS", "result": "(2.01%)"},
      {"measurement": "SAQ Question 1-4: Slightly limited, number of patients", "setting": "FAS", "result": 568},
      {"measurement": "SAQ Question 1-4: Slightly limited, percent of patients", "setting": "FAS", "result": "(32.62%)"},
      {"measurement": "SAQ Question 1-5: Mildly limited, number of patients", "setting": "FAS", "result": 315},
      {"measurement": "SAQ Question 1-5: Mildly limited, percent of patients", "setting": "FAS", "result": "(18.09%)"},
      {"measurement": "SAQ Question 1-5: Moderately limited, number of patients", "setting": "FAS", "result": 196},
      {"measurement": "SAQ Question 1-5: Moderately limited, percent of patients", "setting": "FAS", "result": "(11.26%)"},
      {"measurement": "SAQ Question 1-5: Not limited, number of patients", "setting": "FAS", "result": 648},
      {"measurement": "SAQ Question 1-5: Not limited, percent of patients", "setting": "FAS", "result": "(37.22%)"},
      {"measurement": "SAQ Question 1-5: Other reasons, number of patients", "setting": "FAS", "result": 10},
      {"measurement": "SAQ Question 1-5: Other reasons, percent of patients", "setting": "FAS", "result": "(0.57%)"},
      {"measurement": "SAQ Question 1-5: Severely limited, number of patients", "setting": "FAS", "result": 32},
      {"measurement": "SAQ Question 1-5: Severely limited, percent of patients", "setting": "FAS", "result": "(1.84%)"},
      {"measurement": "SAQ Question 1-5: Slightly limited, number of patients", "setting": "FAS", "result": 540},
      {"measurement": "SAQ Question 1-5: Slightly limited, percent of patients", "setting": "FAS", "result": "(31.02%)"},
      {"measurement": "SAQ Question 1-9: Mildly limited, % of cases", "setting": "FAS", "result": "(16.68%)"},
      {"measurement": "SAQ Question 1-9: Mildly limited, cases", "setting": "FAS", "result": 284},
      {"measurement": "SAQ Question 1-9: Moderately limited, % of cases", "setting": "FAS", "result": "(21.02%)"},
      {"measurement": "SAQ Question 1-9: Moderately limited, cases", "setting": "FAS", "result": 358},
      {"measurement": "SAQ Question 1-9: Not limited, % of cases", "setting": "FAS", "result": "(2.88%)"},
      {"measurement": "SAQ Question 1-9: Not limited, cases", "setting": "FAS", "result": 49},
      {"measurement": "SAQ Question 1-9: Other reasons, % of cases", "setting": "FAS", "result": "(6.17%)"},
      {"measurement": "SAQ Question 1-9: Other reasons, cases", "setting": "FAS", "result": 105},
      {"measurement": "SAQ Question 1-9: Severely limited, % of cases", "setting": "FAS", "result": "(41.93%)"},
      {"measurement": "SAQ Question 1-9: Severely limited, cases", "setting": "FAS", "result": 714},
      {"measurement": "SAQ Question 1-9: Slightly limited, % of cases", "setting": "FAS", "result": "(11.33%)"},
      {"measurement": "SAQ Question 1-9: Slightly limited, cases", "setting": "FAS", "result": 193},
      {"measurement": "SAQ 2nd question: Clearly increased, % of cases", "setting": "PP", "result": "(0.54%)"},
      {"measurement": "SAQ 2nd question: Clearly increased, cases", "setting": "PP", "result": 8},
      {"measurement": "SAQ 2nd question: Clearly reduced, % of cases", "setting": "PP", "result": "(16.75%)"},
      {"measurement": "SAQ 2nd question: Clearly reduced, cases", "setting": "PP", "result": 248},
      {"measurement": "SAQ 2nd question: Same, % of cases", "setting": "PP", "result": "(49.63%)"},
      {"measurement": "SAQ 2nd question: Same, cases", "setting": "PP", "result": 735},
      {"measurement": "SAQ 2nd question: Slightly increased, % of cases", "setting": "PP", "result": "(2.90%)"}
    ]}
  ]
}
